Common to all, as to assay: whole-cell patch clamp in HEK-293
Format in all cases: cell-based

In experiment [1] the target is CaV3.2 (α1H) (Homo sapiens, UniProt O95180).
Experiment [2] addresses CaV3.3 (α1I) (Homo sapiens, UniProt Q9P0X4).
In experiment [3] the target is CaV3.1 (α1G) (Homo sapiens, UniProt O43497).

The structures appear in SMILES notation.

Chain of CaV3.1 (α1G) (O43497 whole entry): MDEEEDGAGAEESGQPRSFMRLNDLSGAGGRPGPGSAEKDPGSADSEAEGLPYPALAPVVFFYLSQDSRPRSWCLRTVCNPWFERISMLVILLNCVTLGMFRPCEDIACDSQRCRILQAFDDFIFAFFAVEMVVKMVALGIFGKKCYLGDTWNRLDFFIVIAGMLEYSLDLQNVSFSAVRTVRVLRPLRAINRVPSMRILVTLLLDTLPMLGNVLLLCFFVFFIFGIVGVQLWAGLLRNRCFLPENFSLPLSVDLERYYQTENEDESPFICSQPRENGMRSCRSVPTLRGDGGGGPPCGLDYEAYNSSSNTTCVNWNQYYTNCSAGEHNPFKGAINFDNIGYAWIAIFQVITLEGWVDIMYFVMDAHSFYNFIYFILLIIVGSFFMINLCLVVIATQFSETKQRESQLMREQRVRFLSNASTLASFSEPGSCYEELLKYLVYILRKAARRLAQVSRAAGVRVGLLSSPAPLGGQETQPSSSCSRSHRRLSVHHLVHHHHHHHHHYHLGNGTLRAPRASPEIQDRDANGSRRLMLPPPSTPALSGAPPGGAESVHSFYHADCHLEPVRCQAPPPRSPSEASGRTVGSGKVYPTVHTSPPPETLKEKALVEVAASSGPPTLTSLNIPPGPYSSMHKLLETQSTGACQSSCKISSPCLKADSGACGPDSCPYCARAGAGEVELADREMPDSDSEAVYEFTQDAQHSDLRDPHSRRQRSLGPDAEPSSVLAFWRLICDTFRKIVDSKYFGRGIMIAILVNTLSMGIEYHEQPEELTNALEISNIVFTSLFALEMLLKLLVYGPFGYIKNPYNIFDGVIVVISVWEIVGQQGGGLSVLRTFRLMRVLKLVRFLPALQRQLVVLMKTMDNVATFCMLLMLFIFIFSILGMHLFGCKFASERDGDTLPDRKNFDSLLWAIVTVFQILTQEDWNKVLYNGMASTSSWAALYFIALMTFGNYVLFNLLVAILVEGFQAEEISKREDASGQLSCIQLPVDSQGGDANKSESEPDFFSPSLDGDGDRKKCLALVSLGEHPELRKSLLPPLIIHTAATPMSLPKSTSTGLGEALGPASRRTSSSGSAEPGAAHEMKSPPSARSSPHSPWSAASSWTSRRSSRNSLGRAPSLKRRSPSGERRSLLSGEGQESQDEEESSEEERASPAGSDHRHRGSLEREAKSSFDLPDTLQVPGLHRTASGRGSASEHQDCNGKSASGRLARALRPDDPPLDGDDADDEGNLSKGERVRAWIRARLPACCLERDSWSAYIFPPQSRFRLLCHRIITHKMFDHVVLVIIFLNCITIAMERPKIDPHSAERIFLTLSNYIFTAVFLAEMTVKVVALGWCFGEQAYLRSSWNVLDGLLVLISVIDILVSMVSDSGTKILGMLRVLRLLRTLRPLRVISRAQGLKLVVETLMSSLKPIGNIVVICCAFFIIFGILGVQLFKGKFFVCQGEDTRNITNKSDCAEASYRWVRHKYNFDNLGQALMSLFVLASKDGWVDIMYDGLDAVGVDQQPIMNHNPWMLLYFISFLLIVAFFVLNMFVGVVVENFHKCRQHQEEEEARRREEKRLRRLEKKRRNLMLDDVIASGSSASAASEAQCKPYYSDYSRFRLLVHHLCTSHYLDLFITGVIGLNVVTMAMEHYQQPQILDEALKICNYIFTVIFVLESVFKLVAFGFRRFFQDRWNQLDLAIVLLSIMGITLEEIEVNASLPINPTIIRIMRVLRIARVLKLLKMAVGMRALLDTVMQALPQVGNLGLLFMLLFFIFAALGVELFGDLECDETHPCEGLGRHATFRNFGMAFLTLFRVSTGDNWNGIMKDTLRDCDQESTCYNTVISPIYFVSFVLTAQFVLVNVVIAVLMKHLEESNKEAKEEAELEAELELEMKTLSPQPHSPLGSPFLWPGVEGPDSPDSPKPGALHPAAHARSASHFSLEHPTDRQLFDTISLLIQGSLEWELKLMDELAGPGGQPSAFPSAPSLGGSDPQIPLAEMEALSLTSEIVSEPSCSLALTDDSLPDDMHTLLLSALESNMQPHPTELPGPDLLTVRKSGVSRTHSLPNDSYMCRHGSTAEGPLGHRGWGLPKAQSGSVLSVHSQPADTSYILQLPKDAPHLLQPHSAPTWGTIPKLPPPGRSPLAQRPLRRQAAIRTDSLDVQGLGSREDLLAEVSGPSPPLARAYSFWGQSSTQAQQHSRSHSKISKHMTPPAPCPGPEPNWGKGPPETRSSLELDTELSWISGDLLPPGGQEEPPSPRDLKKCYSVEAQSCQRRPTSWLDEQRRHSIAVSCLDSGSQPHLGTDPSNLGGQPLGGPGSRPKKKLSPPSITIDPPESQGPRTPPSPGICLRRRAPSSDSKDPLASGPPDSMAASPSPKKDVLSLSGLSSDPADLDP
Chain of CaV3.3 (α1I) (Q9P0X4 whole entry): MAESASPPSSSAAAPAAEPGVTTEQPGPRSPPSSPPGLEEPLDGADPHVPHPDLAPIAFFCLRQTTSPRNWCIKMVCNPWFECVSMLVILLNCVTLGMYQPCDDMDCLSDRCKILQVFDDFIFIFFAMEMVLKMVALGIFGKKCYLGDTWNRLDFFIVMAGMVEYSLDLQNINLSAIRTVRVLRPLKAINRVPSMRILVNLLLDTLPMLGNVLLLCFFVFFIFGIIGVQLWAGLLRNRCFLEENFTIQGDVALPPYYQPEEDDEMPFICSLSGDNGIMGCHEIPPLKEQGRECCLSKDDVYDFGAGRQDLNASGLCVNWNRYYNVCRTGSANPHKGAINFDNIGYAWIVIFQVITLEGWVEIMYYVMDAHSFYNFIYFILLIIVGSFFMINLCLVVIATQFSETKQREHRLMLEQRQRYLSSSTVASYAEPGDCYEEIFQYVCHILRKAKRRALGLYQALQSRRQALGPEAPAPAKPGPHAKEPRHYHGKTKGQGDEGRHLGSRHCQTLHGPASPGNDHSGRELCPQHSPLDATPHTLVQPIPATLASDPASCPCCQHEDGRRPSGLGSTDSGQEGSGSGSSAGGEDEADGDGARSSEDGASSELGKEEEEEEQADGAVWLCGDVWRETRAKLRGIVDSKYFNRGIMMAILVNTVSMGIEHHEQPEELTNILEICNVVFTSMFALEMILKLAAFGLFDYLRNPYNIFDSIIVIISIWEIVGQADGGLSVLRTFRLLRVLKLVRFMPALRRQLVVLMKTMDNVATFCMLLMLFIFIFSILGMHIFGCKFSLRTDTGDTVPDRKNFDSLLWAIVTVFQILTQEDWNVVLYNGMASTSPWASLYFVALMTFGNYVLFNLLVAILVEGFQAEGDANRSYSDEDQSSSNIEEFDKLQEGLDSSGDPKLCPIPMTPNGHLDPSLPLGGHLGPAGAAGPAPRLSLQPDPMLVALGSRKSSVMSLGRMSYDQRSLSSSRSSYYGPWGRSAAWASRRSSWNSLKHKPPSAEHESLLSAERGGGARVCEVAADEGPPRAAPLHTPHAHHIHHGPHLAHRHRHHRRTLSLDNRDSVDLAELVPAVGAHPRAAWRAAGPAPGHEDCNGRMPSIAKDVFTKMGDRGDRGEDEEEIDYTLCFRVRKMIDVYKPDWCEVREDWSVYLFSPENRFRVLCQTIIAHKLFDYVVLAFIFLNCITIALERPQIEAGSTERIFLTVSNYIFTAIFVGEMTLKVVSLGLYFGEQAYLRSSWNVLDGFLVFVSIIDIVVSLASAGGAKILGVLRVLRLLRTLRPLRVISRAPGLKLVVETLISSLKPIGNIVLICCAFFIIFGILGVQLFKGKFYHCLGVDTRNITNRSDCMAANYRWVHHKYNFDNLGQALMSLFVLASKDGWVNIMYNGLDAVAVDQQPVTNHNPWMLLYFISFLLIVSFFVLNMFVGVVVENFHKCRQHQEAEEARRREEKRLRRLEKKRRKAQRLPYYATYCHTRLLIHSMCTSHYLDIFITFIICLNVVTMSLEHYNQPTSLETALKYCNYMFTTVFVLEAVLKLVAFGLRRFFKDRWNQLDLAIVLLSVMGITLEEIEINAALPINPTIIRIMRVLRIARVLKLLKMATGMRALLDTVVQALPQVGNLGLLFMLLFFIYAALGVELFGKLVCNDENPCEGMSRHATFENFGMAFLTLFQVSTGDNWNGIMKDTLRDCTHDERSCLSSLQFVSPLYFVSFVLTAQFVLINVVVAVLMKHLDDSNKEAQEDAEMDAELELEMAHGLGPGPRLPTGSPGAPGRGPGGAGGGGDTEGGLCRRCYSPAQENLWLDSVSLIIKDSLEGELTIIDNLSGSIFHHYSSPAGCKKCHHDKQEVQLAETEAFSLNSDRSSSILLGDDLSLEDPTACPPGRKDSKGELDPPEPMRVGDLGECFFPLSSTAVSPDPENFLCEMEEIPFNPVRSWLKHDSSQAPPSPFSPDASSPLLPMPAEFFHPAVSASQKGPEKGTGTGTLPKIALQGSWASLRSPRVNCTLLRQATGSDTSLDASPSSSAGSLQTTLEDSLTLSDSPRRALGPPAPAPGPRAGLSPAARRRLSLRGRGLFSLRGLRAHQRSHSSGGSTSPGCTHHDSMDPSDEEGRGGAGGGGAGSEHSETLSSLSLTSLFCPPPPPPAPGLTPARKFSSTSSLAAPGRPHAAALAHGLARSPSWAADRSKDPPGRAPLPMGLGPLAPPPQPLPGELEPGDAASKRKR

As usually defined, the Kd is a measure of binding affinity in units of concentration. Turning to `O=C(O)c1cccnc1Nc1cccc(C(F)(F)F)c1` [NA, 2-{[3-(trifluoromethyl)phenyl]amino}-pyridine-3-carboxylic acid], the values for the Kd in experiment [1], in experiment [2] and in experiment [3] were 192 µM, 137 µM and 78.4 µM, respectively.

Source of the values: PMC4146346 (Journal of cellular physiology, 2012).
